# Measurements: PubChem BioAssay (NCI)
#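 Following 48 hours of exposure in 96-well plates, responses at five concentrations were used to interpolate endpoints linearly. TGI: total growth inhibition.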
# Tests used:
# Assay in all cases: NCI tumour cell line growth inhibition, 48 h
# OVCAR-5 ovarian = system: OVCAR-5 ovarian
# U251 CNS = system: U251 CNS
# SF-268 CNS = system: SF-268 CNS
# KM20L2 colon = system: KM20L2 colon
# TK-10 renal = system: TK-10 renal
# SNB-75 CNS = system: SNB-75 CNS
# CCRF-CEM leukemia = system: CCRF-CEM leukemia
# HCT-116 colon = system: HCT-116 colon
# MALME-3M melanoma = system: MALME-3M melanoma
# LOX IMVI melanoma = system: LOX IMVI melanoma
# SK-OV-3 ovarian = system: SK-OV-3 ovarian
# OVCAR-8 ovarian = system: OVCAR-8 ovarian
# SW-620 colon = system: SW-620 colon
# ACHN renal = system: ACHN renal
# HCT-15 colon = system: HCT-15 colon
# A498 renal = system: A498 renal
# 786-0 renal = system: 786-0 renal
# DLD-1 colon = system: DLD-1 colon
# IGROV1 ovarian = system: IGROV1 ovarian
# HT29 colon = system: HT29 colon
# NCI-H460 lung = system: NCI-H460 lung
# DMS 114 small cell lung = system: DMS 114 small cell lung
# SNB-78 CNS = system: SNB-78 CNS
# SK-MEL-2 melanoma = system: SK-MEL-2 melanoma
# UACC-257 melanoma = system: UACC-257 melanoma
# CAKI-1 renal = system: CAKI-1 renal
# A549 NSCLC = system: A549 NSCLC
# LXFL 529 NSCLC = system: LXFL 529 NSCLC
# HOP-92 NSCLC = system: HOP-92 NSCLC
# SNB-19 CNS = system: SNB-19 CNS
# SK-MEL-28 melanoma = system: SK-MEL-28 melanoma
# SF-295 CNS = system: SF-295 CNS
# OVCAR-3 ovarian = system: OVCAR-3 ovarian
# HOP-18 NSCLC = system: HOP-18 NSCLC
# SK-MEL-5 melanoma = system: SK-MEL-5 melanoma
# EKVX NSCLC = system: EKVX NSCLC
# SF-539 CNS = system: SF-539 CNS
# KM12 colon = system: KM12 colon
# SN12C renal = system: SN12C renal
# MOLT-4 leukemia = system: MOLT-4 leukemia
# RXF-631 renal = system: RXF-631 renal
# HOP-62 NSCLC = system: HOP-62 NSCLC
# OVCAR-4 ovarian = system: OVCAR-4 ovarian
# K-562 leukemia = system: K-562 leukemia
# UACC-62 melanoma = system: UACC-62 melanoma
# M19-MEL melanoma = system: M19-MEL melanoma
# UO-31 renal = system: UO-31 renal
# M14 melanoma = system: M14 melanoma
# DMS 273 small cell lung = system: DMS 273 small cell lung
# COLO 205 colon = system: COLO 205 colon
# NCI-H226 lung = system: NCI-H226 lung
# NCI-H23 lung = system: NCI-H23 lung
# HCC-2998 colon = system: HCC-2998 colon
# RPMI-8226 leukemia = system: RPMI-8226 leukemia
# XF 498 CNS = system: XF 498 CNS
# RXF 393 renal = system: RXF 393 renal
# NCI-H522 lung = system: NCI-H522 lung
# SR leukemia = system: SR leukemia
# HL-60(TB) leukemia = system: HL-60(TB) leukemia
# SN12K1 renal = system: SN12K1 renal
# P388/ADR leukemia = system: P388/ADR leukemia
# NCI/ADR-RES ovarian = system: NCI/ADR-RES ovarian
# P388 leukemia = system: P388 leukemia
# MCF7 breast = system: MCF7 breast
smiles,measurement,setting,value
CC1=NN(C(=O)CC(=O)NC(=O)CC(=O)Nc2ccccc2F)C(=O)C1N=Nc1ccc([N+](=O)[O-])cc1 (stereo unspecified),TGI,OVCAR-5 ovarian,> 100 µM
same,TGI,U251 CNS,50 µM
same,TGI,SF-268 CNS,> 100 µM
same,TGI,KM20L2 colon,> 100 µM
same,TGI,TK-10 renal,> 100 µM
same,TGI,SNB-75 CNS,98.2 µM
same,TGI,CCRF-CEM leukemia,63.6 µM
same,TGI,HCT-116 colon,35.5 µM
same,TGI,MALME-3M melanoma,> 100 µM
same,TGI,LOX IMVI melanoma,35.8 µM
same,TGI,SK-OV-3 ovarian,> 100 µM
same,TGI,OVCAR-8 ovarian,> 100 µM
same,TGI,SW-620 colon,41.1 µM
same,TGI,ACHN renal,> 100 µM
same,TGI,HCT-15 colon,> 100 µM
same,TGI,A498 renal,94.8 µM
same,TGI,786-0 renal,64.6 µM
same,TGI,DLD-1 colon,> 100 µM
same,TGI,IGROV1 ovarian,> 100 µM
same,TGI,HT29 colon,45.9 µM
same,TGI,NCI-H460 lung,> 100 µM
same,TGI,DMS 114 small cell lung,41 µM
same,TGI,SNB-78 CNS,> 100 µM
same,TGI,SK-MEL-2 melanoma,> 100 µM
same,TGI,UACC-257 melanoma,76.1 µM
same,TGI,CAKI-1 renal,> 100 µM
same,TGI,A549 NSCLC,86.2 µM
same,TGI,LXFL 529 NSCLC,> 100 µM
same,TGI,HOP-92 NSCLC,> 100 µM
same,TGI,SNB-19 CNS,> 100 µM
same,TGI,SK-MEL-28 melanoma,> 100 µM
same,TGI,SF-295 CNS,> 100 µM
same,TGI,OVCAR-3 ovarian,81.3 µM
same,TGI,HOP-18 NSCLC,> 100 µM
same,TGI,SK-MEL-5 melanoma,> 100 µM
same,TGI,EKVX NSCLC,96.2 µM
same,TGI,SF-539 CNS,> 100 µM
same,TGI,KM12 colon,> 100 µM
same,TGI,SN12C renal,> 100 µM
same,TGI,MOLT-4 leukemia,77.7 µM
same,TGI,RXF-631 renal,> 100 µM
same,TGI,HOP-62 NSCLC,> 100 µM
same,TGI,OVCAR-4 ovarian,> 100 µM
same,TGI,K-562 leukemia,65.4 µM
same,TGI,UACC-62 melanoma,> 100 µM
same,TGI,M19-MEL melanoma,92.8 µM
same,TGI,UO-31 renal,84.2 µM
same,TGI,M14 melanoma,> 100 µM
same,TGI,DMS 273 small cell lung,> 100 µM
same,TGI,COLO 205 colon,69.2 µM
same,TGI,NCI-H226 lung,> 100 µM
same,TGI,NCI-H23 lung,> 100 µM
same,TGI,HCC-2998 colon,> 100 µM
same,TGI,RPMI-8226 leukemia,46.3 µM
same,TGI,XF 498 CNS,70.9 µM
c1ccc2cc3[s+]snc3cc2c1,TGI,OVCAR-5 ovarian,> 100 µM
same,TGI,U251 CNS,> 100 µM
same,TGI,SF-268 CNS,> 100 µM
same,TGI,KM20L2 colon,> 100 µM
same,TGI,TK-10 renal,> 100 µM
same,TGI,SNB-75 CNS,> 100 µM
same,TGI,CCRF-CEM leukemia,> 100 µM
same,TGI,HCT-116 colon,> 100 µM
same,TGI,RXF 393 renal,> 100 µM
same,TGI,MALME-3M melanoma,> 100 µM
same,TGI,LOX IMVI melanoma,> 100 µM
same,TGI,SK-OV-3 ovarian,> 100 µM
same,TGI,OVCAR-8 ovarian,> 100 µM
same,TGI,SW-620 colon,> 100 µM
same,TGI,ACHN renal,> 100 µM
same,TGI,HCT-15 colon,> 100 µM
same,TGI,A498 renal,> 100 µM
same,TGI,786-0 renal,> 100 µM
same,TGI,DLD-1 colon,> 100 µM
same,TGI,NCI-H522 lung,> 100 µM
same,TGI,IGROV1 ovarian,> 100 µM
same,TGI,HT29 colon,> 100 µM
same,TGI,NCI-H460 lung,> 100 µM
same,TGI,SNB-78 CNS,> 100 µM
same,TGI,SK-MEL-2 melanoma,> 100 µM
same,TGI,SR leukemia,> 100 µM
same,TGI,UACC-257 melanoma,> 100 µM
same,TGI,CAKI-1 renal,> 100 µM
same,TGI,A549 NSCLC,> 100 µM
same,TGI,LXFL 529 NSCLC,> 100 µM
same,TGI,SNB-19 CNS,> 100 µM
same,TGI,SK-MEL-28 melanoma,> 100 µM
same,TGI,SF-295 CNS,> 100 µM
same,TGI,OVCAR-3 ovarian,> 100 µM
same,TGI,HOP-18 NSCLC,> 100 µM
same,TGI,SK-MEL-5 melanoma,> 100 µM
same,TGI,EKVX NSCLC,> 100 µM
same,TGI,SF-539 CNS,> 100 µM
same,TGI,KM12 colon,> 100 µM
same,TGI,SN12C renal,> 100 µM
same,TGI,MOLT-4 leukemia,> 100 µM
same,TGI,RXF-631 renal,> 100 µM
same,TGI,HOP-62 NSCLC,> 100 µM
same,TGI,OVCAR-4 ovarian,> 100 µM
same,TGI,K-562 leukemia,> 100 µM
same,TGI,UACC-62 melanoma,> 100 µM
same,TGI,HL-60(TB) leukemia,> 100 µM
same,TGI,M19-MEL melanoma,> 100 µM
same,TGI,UO-31 renal,> 100 µM
same,TGI,M14 melanoma,> 100 µM
same,TGI,DMS 273 small cell lung,> 100 µM
same,TGI,COLO 205 colon,> 100 µM
same,TGI,NCI-H226 lung,> 100 µM
same,TGI,NCI-H23 lung,> 100 µM
same,TGI,HCC-2998 colon,> 100 µM
same,TGI,XF 498 CNS,> 100 µM
Nc1c(C(=O)Nc2ccc(C3=NCCN3)cc2)cccc1C(=O)Nc1ccc(C2=NCCN2)cc1,TGI,OVCAR-5 ovarian,> 100 µM
same,TGI,U251 CNS,> 100 µM
same,TGI,SF-268 CNS,> 100 µM
same,TGI,KM20L2 colon,> 100 µM
same,TGI,SNB-75 CNS,> 100 µM
same,TGI,CCRF-CEM leukemia,> 100 µM
same,TGI,HCT-116 colon,> 100 µM
same,TGI,RXF 393 renal,> 100 µM
same,TGI,MALME-3M melanoma,> 100 µM
same,TGI,SN12K1 renal,> 100 µM
same,TGI,LOX IMVI melanoma,> 100 µM
same,TGI,SK-OV-3 ovarian,> 100 µM
same,TGI,OVCAR-8 ovarian,> 100 µM
same,TGI,SW-620 colon,> 100 µM
same,TGI,HCT-15 colon,> 100 µM
same,TGI,A498 renal,> 100 µM
same,TGI,DLD-1 colon,> 100 µM
same,TGI,NCI-H522 lung,> 100 µM
same,TGI,IGROV1 ovarian,> 100 µM
same,TGI,HT29 colon,> 100 µM
same,TGI,NCI-H460 lung,> 100 µM
same,TGI,DMS 114 small cell lung,> 100 µM
same,TGI,SNB-78 CNS,> 100 µM
same,TGI,SK-MEL-2 melanoma,> 100 µM
same,TGI,UACC-257 melanoma,> 100 µM
same,TGI,CAKI-1 renal,> 100 µM
same,TGI,A549 NSCLC,> 100 µM
same,TGI,P388/ADR leukemia,> 100 µM
same,TGI,HOP-92 NSCLC,> 100 µM
same,TGI,SNB-19 CNS,> 100 µM
same,TGI,SK-MEL-28 melanoma,> 100 µM
same,TGI,SF-295 CNS,> 100 µM
same,TGI,OVCAR-3 ovarian,> 100 µM
same,TGI,HOP-18 NSCLC,> 100 µM
same,TGI,SK-MEL-5 melanoma,> 100 µM
same,TGI,NCI/ADR-RES ovarian,> 100 µM
same,TGI,SF-539 CNS,> 100 µM
same,TGI,KM12 colon,> 100 µM
same,TGI,SN12C renal,> 100 µM
same,TGI,MOLT-4 leukemia,> 100 µM
same,TGI,OVCAR-4 ovarian,> 100 µM
same,TGI,K-562 leukemia,> 100 µM
same,TGI,UACC-62 melanoma,> 100 µM
same,TGI,HL-60(TB) leukemia,> 100 µM
same,TGI,M19-MEL melanoma,> 100 µM
same,TGI,UO-31 renal,> 100 µM
same,TGI,DMS 273 small cell lung,> 100 µM
same,TGI,COLO 205 colon,> 100 µM
same,TGI,P388 leukemia,> 100 µM
same,TGI,NCI-H226 lung,> 100 µM
same,TGI,MCF7 breast,> 100 µM
same,TGI,NCI-H23 lung,> 100 µM
same,TGI,HCC-2998 colon,> 100 µM
same,TGI,RPMI-8226 leukemia,> 100 µM
same,TGI,XF 498 CNS,> 100 µM
